Reference: publication doi:10.1101/2024.08.13.607785v1 (biorxiv, 2024)

Key:
Set-up in all cases: species or system mixed lysate of K562, MV4-11, THP-1, NCI-H1155
[1] = molecular target: Dual specificity testis-specific protein kinase 1 ; TESK1 ; Q15569 (Homo sapiens, UniProt Q15569); details: DIA-MS residual binding; binder
[2] = molecular target: T1, Tyrosine-protein kinase Tec ; TEC ; P42680 (Homo sapiens, UniProt P42680); details: binder
T1 sequence (P42680 1-631): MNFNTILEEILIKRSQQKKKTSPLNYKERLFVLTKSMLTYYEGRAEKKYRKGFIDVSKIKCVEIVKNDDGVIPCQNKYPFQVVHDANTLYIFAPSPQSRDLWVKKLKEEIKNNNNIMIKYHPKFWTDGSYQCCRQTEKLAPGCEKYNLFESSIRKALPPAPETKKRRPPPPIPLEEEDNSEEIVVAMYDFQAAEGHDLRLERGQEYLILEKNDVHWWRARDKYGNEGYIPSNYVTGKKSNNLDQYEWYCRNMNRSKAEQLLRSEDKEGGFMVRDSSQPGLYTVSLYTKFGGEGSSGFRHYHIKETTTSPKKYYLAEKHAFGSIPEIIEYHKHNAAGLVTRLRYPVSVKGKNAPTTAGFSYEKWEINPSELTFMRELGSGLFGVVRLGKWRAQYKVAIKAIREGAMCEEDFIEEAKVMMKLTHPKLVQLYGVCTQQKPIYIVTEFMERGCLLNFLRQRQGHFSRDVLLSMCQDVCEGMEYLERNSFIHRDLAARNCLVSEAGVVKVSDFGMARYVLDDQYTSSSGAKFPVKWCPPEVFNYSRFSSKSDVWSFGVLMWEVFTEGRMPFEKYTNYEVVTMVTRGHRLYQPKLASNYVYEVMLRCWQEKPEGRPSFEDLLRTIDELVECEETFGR

[3] = molecular target: Tyrosine-protein kinase CSK ; CSK ; P41240 (Homo sapiens, UniProt P41240); details: binder
[4] = molecular target: Proto-oncogene tyrosine-protein kinase receptor Ret ; RET ; P07949 (Homo sapiens, UniProt P07949); details: binder
[5] = molecular target: Tyrosine-protein kinase Lyn ; LYN ; P07948 (Homo sapiens, UniProt P07948); details: DIA-MS residual binding; binder
[6] = molecular target: Activated CDC42 kinase 1 ; TNK2 ; Q07912 (Homo sapiens, UniProt Q07912); details: DIA-MS residual binding; binder
[7] = molecular target: T2, Cyclin-G-associated kinase ; GAK ; O14976 (Homo sapiens, UniProt O14976); details: DIA-MS residual binding; binder
T2 sequence (O14976 1-1311): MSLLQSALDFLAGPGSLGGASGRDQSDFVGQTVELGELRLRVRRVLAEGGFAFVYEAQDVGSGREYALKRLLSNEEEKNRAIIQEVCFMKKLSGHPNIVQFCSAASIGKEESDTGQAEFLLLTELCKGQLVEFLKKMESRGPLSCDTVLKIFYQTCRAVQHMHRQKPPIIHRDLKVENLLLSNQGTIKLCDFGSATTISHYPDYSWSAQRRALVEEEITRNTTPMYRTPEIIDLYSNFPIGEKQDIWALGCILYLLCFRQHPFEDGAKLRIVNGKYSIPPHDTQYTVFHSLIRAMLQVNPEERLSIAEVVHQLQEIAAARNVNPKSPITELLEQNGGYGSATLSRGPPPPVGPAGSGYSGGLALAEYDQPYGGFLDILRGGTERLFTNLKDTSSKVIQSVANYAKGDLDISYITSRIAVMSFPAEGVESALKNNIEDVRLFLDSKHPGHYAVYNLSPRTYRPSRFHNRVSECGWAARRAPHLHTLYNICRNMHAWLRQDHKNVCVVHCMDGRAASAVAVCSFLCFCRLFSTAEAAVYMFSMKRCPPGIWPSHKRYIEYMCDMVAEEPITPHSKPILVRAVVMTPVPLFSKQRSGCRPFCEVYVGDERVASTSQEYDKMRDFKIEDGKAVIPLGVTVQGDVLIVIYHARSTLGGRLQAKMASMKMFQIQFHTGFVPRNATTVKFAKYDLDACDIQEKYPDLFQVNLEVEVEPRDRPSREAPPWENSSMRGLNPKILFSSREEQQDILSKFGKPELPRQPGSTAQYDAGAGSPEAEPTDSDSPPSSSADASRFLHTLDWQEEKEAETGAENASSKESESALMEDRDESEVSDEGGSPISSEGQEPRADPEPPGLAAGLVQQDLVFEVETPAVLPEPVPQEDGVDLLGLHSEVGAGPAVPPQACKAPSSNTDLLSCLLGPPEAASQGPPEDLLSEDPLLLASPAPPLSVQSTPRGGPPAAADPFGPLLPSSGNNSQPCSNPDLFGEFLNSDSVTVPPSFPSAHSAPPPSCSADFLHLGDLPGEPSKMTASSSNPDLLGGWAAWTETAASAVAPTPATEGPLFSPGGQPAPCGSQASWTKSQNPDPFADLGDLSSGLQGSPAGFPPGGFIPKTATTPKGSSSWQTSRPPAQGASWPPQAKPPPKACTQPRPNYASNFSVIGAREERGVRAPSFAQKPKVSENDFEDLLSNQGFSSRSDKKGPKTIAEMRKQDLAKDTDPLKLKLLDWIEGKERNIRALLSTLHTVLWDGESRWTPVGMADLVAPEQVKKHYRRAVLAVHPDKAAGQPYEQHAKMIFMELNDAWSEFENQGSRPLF

[8] = molecular target: Peripheral plasma membrane protein CASK ; CASK ; O14936 (Homo sapiens, UniProt O14936); details: DIA-MS residual binding; binder
Chain of Peripheral plasma membrane protein CASK ; CASK ; O14936 (O14936 whole entry): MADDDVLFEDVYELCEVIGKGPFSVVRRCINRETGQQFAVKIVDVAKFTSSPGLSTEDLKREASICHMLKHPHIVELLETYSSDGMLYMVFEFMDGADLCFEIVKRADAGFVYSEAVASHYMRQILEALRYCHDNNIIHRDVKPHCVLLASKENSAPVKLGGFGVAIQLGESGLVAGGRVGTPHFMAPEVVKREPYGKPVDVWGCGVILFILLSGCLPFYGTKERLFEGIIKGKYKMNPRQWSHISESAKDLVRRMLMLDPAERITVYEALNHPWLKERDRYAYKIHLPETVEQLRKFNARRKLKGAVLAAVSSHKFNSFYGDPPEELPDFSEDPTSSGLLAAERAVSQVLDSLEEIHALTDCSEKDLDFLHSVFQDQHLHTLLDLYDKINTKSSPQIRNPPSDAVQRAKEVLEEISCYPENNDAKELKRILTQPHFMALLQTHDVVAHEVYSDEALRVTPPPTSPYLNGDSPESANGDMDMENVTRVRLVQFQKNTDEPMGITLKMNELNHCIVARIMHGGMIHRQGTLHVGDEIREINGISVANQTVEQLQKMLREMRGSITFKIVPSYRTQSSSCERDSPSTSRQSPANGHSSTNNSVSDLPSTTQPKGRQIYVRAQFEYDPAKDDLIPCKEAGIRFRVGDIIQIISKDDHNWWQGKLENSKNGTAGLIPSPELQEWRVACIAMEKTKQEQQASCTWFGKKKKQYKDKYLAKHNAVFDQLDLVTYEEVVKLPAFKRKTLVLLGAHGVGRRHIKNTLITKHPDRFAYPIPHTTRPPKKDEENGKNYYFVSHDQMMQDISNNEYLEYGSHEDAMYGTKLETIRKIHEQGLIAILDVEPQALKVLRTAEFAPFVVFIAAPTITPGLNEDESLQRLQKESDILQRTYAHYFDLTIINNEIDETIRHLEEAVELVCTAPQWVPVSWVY

Chain of Dual specificity testis-specific protein kinase 1 ; TESK1 ; Q15569 (Q15569 whole entry): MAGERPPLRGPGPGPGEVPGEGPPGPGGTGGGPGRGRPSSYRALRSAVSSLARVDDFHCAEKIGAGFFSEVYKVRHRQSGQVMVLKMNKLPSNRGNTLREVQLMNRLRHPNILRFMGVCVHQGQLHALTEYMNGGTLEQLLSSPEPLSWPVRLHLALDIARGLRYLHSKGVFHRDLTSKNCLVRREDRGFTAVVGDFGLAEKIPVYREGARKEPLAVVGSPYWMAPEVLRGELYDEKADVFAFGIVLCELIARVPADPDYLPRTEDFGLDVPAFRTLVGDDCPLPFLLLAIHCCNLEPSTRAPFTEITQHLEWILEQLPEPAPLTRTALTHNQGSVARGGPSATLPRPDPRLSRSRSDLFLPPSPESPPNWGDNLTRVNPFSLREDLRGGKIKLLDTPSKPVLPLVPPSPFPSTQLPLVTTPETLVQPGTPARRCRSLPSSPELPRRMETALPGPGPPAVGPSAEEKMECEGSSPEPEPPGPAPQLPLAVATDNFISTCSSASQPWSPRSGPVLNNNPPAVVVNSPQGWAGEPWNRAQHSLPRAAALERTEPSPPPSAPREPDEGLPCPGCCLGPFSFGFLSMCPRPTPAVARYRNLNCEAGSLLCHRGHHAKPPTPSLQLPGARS
Chain of Activated CDC42 kinase 1 ; TNK2 ; Q07912 (Q07912 whole entry): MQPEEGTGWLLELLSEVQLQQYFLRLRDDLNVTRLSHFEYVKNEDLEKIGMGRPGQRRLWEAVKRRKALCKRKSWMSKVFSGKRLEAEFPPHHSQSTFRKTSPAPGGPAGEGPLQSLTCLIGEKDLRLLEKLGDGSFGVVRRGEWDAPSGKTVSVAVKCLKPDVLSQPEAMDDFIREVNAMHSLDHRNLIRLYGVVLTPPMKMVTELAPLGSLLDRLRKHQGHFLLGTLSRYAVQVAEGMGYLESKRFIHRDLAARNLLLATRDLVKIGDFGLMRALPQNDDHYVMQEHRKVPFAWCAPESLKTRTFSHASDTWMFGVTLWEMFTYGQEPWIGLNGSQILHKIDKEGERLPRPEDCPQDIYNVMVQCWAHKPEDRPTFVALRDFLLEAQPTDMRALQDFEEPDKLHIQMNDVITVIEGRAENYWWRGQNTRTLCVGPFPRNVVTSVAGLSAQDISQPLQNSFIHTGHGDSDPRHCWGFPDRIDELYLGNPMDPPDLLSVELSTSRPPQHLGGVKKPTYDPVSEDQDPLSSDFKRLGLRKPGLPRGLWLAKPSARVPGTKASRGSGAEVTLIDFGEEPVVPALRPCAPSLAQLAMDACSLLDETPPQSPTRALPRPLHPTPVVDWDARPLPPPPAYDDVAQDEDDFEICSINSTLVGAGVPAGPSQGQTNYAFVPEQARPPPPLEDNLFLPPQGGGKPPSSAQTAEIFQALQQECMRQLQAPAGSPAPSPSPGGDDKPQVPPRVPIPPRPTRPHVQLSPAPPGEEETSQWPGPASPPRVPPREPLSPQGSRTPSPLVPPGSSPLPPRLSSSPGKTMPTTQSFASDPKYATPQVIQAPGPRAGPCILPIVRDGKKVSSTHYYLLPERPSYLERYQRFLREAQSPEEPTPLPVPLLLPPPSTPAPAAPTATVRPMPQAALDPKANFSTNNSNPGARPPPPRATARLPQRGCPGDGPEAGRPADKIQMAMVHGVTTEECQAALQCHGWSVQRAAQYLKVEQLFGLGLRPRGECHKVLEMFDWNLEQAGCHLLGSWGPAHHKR
Chain of Proto-oncogene tyrosine-protein kinase receptor Ret ; RET ; P07949 (P07949 whole entry): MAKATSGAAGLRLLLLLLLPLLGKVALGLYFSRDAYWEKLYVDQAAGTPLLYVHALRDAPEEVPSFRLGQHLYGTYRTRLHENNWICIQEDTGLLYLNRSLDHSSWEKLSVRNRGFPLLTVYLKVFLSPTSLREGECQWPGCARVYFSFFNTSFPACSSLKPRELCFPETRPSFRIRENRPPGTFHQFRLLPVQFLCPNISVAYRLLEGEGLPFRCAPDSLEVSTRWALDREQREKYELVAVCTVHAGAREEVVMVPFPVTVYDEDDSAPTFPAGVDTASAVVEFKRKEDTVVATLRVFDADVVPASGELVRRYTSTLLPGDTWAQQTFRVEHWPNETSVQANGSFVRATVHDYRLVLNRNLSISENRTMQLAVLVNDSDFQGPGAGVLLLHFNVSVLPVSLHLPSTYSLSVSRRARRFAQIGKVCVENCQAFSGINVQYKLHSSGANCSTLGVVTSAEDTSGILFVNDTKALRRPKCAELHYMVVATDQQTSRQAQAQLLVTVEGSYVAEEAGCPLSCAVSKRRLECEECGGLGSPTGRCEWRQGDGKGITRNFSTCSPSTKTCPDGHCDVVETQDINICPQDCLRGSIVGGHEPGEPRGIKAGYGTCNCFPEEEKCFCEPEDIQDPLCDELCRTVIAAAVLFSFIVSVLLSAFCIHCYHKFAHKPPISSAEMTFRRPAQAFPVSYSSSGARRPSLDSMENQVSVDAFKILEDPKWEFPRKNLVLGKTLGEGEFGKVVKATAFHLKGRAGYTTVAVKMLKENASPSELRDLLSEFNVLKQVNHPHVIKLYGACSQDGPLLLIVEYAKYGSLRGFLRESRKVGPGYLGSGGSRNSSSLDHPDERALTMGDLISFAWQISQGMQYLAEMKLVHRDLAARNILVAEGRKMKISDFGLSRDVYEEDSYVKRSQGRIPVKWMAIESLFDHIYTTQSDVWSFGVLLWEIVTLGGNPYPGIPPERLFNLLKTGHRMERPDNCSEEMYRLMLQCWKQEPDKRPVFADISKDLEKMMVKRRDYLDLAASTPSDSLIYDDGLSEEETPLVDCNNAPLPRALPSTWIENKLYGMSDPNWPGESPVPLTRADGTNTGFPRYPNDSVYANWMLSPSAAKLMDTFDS
Chain of Tyrosine-protein kinase CSK ; CSK ; P41240 (P41240 whole entry): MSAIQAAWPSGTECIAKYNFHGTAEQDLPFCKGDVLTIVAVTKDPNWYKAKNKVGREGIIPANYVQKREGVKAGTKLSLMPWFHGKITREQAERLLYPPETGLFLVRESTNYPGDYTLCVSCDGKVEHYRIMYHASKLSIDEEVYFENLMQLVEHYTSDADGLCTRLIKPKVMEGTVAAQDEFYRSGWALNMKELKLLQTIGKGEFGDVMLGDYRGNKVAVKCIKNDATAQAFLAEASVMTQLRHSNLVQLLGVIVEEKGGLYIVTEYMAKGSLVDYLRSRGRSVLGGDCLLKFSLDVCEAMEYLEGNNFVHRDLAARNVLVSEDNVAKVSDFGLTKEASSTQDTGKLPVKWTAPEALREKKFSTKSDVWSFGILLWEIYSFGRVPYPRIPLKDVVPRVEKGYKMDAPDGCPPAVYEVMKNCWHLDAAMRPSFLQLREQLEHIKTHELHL
Chain of Tyrosine-protein kinase Lyn ; LYN ; P07948 (P07948 whole entry): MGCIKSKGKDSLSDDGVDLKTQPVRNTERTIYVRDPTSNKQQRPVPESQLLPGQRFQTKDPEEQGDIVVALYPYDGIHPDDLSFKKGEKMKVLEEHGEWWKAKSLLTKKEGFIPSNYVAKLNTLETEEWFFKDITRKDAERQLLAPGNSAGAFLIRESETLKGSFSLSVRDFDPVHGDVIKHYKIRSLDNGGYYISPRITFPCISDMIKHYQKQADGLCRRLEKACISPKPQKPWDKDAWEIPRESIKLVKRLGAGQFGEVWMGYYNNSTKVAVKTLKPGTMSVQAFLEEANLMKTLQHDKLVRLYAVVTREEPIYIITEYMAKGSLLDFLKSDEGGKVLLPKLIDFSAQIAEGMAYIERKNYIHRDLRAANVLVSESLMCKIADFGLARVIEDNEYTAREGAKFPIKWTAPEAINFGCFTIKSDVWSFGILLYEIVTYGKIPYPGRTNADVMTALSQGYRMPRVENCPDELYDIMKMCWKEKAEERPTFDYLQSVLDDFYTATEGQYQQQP

`Cc1nc(Nc2ncc(C(=O)Nc3c(C)cccc3Cl)s2)cc(N2CCN(CCO)CC2)n1` [dasatinib] was tested, and the “DIA-MS / % Intensity (30 µM/DMSO)” value [1] was 14.82%, the “DIA-MS / % Intensity (30 µM/DMSO)” value [2] was 7.109% and the “DIA-MS / % Intensity (30 µM/DMSO)” value [3] was 0.9845%. The “DIA-MS / % Intensity (30 µM/DMSO)” value [4] was 41.37%, the “DIA-MS / % Intensity (30 µM/DMSO)” value [5] was 11.5% and the “DIA-MS / % Intensity (30 µM/DMSO)” value [6] was 2.81%. For the same compound, the “DIA-MS / % Intensity (30 µM/DMSO)” value [7] was 4.611% and the “DIA-MS / % Intensity (30 µM/DMSO)” value [8] was 21.6%.
